In patent US20020082419A1, “2,4-pentadienoic acid derivatives having retinoid-like biological activity” (Allergan Sales, Inc., priority 1995, published 2002):

How the values were obtained:
RARβ = biological target: T1, RARβ (Homo sapiens, UniProt P10826); experiment: Holoreceptor transactivation assay, RARβ; format: cell-based; conditions: for EC50: CV1 cells, luciferase reporter, 36 hours incubation; for Transactivation Assay Afficacy (% of RA activity) RARβ: relative to all trans retinoic acid
T1 construct: expressed in transfected cells; host or cells: CV1 cells
T1 sequence (P10826 1-455): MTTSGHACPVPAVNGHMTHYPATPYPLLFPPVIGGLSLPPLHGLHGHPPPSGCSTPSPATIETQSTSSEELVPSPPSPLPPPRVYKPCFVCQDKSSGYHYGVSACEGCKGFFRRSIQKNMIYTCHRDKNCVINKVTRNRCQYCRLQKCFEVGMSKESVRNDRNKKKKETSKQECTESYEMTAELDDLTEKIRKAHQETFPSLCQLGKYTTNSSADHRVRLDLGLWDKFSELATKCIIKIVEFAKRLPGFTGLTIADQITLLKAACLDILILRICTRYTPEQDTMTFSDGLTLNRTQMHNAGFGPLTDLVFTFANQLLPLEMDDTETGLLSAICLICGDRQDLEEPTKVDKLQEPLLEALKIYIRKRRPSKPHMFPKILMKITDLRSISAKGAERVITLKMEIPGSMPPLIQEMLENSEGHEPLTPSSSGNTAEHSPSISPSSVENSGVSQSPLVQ
Method: (§1) A description of the holoreceptor transactivation assay is also provided below.
(§2) (8). […] (8, 9). […] A β-galactosidase (50 ng) expression vector was used as an internal control in the transfections to normalize for variations in transfection efficiency. The cells were transfected in triplicate for 6 hours, followed by incubation with retinoids for 36 hours, and the extracts were assayed for luciferase and β-galactosidase activities. The detailed experimental procedure for holoreceptor transactivations has been described in Heyman et al. above, and Allegretto et al. cited above. […] The results of ligand binding assay are expressed in KD50 numbers.

RXRα [1] = biological target: T2, RXRα (Homo sapiens, UniProt P19793); experiment: Holoreceptor transactivation assay, RXRα; format: cell-based; conditions: for EC50: CV1 cells, luciferase reporter, 36 hours incubation; for Transactivation Assay Afficacy (% of RA activity) RXRα: relative to all trans retinoic acid
T2 construct: expressed in transfected cells; host or cells: CV1 cells
T2 sequence (P19793 1-462): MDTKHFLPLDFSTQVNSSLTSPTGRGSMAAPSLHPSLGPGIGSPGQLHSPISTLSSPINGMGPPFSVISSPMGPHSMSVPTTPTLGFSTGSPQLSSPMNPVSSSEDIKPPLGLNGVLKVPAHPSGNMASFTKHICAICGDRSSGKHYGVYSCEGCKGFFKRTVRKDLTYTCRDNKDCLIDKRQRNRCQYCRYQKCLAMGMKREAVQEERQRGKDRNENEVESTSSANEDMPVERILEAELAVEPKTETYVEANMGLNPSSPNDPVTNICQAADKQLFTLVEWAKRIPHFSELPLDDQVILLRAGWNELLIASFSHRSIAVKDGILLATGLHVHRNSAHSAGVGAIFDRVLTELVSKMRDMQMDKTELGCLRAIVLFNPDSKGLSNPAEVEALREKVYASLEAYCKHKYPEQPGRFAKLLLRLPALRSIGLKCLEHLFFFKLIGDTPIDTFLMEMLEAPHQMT
From the text: (§3) A holoreceptor transactivation assay and a ligand binding assay which measure the agonist like activity of the compounds of the invention, or their ability to bind to the several retinoid receptor sub-types, respectively, are described in published PCT Application No. WO WO93/11755 (particularly on pages 30-33 and 37-41) published on Jun. 24, 1993, the specification of which is also incorporated herein by reference. A description of the holoreceptor transactivation assay is also provided below.
(§4) CV1 cells (5,000 cells/well) were transfected with an RAR reporter plasmid ▴MTV-TREp-LUC (50 ng) along with one of the RAR expression vectors (10 ng) in an automated 96-well format by the calcium phosphate procedure of Heyman et al. Cell 68, 397-406. (8). For RXR transactivation assays, an RXR-responsive reporter plasmid CRBP II-TK-LUC (50 ng) along with one of the RXR expression vectors (10 ng) was used substantially as described by Heyman et al. above, and Allegretto et al. J. Biol. Chem. 268, 26625-26633. (8, 9). RXR-reporter contained DRI elements from human CRBP II promoter (see Mangelsdorf et al. The Retinoids: Biology, Chemistry and Medicine, pp 319-349, Raven Press Ltd., New York and Heyman et al., cited above) (1, 8). A β-galactosidase (50 ng) expression vector was used as an internal control in the transfections to normalize for variations in transfection efficiency. The cells were transfected in triplicate for 6 hours, followed by incubation with retinoids for 36 hours, and the extracts were assayed for luciferase and β-galactosidase activities. The detailed experimental procedure for holoreceptor transactivations has been described in Heyman et al. above, and Allegretto et al. cited above. The results obtained in this assay in connection with examplary compounds in accordance with the present invention are expressed in EC50 numbers, as they are also in the chimeric receptor transactivation assay. The Heyman et al. Cell 68, 397-406, Allegretto et al. J. Biol. Chem. 268, 26625-26633, and Mangelsdorf et al. The Retinoids: Biology, Chemistry and Medicine, pp 319-349, Raven Press Ltd., New York, are expressly incorporated herein by reference. The results of ligand binding assay are expressed in KD50 numbers.

RXRβ = biological target: T3, RXRβ (Mus musculus, UniProt P28704); experiment: Holoreceptor transactivation assay, RXRβ; format: cell-based; conditions: relative to all trans retinoic acid; read-out: Transactivation Assay Afficacy (% of RA activity) RXRβ
T3 sequence (P28704 1-520): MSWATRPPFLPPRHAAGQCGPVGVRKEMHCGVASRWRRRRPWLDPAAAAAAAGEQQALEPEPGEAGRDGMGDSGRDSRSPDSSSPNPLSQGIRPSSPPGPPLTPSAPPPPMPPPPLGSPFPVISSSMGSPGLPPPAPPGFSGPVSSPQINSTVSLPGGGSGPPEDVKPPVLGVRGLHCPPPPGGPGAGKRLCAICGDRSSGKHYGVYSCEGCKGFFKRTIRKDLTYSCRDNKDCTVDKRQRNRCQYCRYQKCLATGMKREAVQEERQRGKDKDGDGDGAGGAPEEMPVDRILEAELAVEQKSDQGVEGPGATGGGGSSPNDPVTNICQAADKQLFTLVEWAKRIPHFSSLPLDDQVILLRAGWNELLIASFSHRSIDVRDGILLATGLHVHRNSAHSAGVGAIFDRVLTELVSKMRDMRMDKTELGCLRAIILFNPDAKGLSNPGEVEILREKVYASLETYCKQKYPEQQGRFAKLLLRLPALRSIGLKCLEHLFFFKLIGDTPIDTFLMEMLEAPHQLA
Method: as §1, §2

RXRΓ = biological target: T4, RXRΓ (Mus musculus, UniProt P28705); experiment: Holoreceptor transactivation assay, RXRΓ; format: cell-based; conditions: for EC50: CV1 cells, luciferase reporter, 36 hours incubation; for Transactivation Assay Afficacy (% of RA activity) RXRΓ: relative to all trans retinoic acid
T4 construct: expressed in transfected cells; host or cells: CV1 cells
T4 sequence (P28705 1-463): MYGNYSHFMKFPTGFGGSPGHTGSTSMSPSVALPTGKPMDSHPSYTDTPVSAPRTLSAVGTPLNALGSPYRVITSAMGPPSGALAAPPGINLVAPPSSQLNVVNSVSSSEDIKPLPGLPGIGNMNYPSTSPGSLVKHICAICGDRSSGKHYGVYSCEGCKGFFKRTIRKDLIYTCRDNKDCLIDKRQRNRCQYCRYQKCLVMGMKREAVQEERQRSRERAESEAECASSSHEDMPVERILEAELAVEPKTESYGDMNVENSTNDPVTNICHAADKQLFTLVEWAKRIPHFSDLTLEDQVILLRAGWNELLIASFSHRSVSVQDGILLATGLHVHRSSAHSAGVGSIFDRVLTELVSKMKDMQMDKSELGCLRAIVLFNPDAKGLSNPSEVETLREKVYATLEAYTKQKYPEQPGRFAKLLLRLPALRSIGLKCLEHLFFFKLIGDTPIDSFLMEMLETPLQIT
Method: as §1, §2

RARΓ = biological target: T5, RARΓ (Homo sapiens, UniProt P13631); experiment: Holoreceptor transactivation assay, RARΓ; format: cell-based; conditions: for EC50: CV1 cells, luciferase reporter, 36 hours incubation; for Transactivation Assay Afficacy (% of RA activity) RARΓ: relative to all trans retinoic acid
T5 construct: expressed in transfected cells; host or cells: CV1 cells
T5 sequence (P13631 1-454): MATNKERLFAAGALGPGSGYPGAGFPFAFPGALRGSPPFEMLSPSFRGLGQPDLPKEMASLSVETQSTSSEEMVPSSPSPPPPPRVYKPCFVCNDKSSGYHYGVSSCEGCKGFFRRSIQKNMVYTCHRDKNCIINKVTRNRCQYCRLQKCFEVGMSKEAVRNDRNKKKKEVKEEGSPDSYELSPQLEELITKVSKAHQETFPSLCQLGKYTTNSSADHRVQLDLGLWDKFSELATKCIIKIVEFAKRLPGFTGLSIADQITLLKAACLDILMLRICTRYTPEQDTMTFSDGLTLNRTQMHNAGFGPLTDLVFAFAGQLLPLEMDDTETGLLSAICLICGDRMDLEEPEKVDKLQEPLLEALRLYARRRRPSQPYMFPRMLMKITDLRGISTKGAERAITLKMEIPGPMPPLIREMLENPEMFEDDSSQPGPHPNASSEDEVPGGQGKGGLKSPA
Method: as §1, §2

RARα = biological target: T6, RARα (Homo sapiens, UniProt P10276); experiment: Holoreceptor transactivation assay, RARα; format: cell-based; conditions: for EC50: CV1 cells, luciferase reporter, 36 hours incubation; for Transactivation Assay Afficacy (% of RA activity) RARα: relative to all trans retinoic acid
T6 construct: expressed in transfected cells; host or cells: CV1 cells
T6 sequence (P10276 1-462): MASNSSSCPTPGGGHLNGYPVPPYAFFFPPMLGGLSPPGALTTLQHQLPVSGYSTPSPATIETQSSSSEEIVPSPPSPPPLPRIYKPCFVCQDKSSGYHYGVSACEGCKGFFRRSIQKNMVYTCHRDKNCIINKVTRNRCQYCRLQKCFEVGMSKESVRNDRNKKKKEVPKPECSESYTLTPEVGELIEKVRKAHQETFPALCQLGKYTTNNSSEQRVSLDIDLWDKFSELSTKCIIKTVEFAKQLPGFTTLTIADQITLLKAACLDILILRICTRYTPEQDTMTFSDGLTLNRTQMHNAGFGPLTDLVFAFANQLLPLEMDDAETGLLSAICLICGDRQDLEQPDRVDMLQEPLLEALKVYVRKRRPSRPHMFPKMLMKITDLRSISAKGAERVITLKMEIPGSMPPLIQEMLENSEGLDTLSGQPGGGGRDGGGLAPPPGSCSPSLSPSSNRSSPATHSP
Method: as §1, §2

RXRα [2] = biological target: T2, RXRα; experiment: Ligand binding assay, RXRα; conditions: read-out: Ligand Binding Assay KD50 RXRα
From the text: as §3
as §4, with “The Heyman et al. Cell 68, 397-406, Allegretto et al. J. Biol. Chem. 268, 26625-26633, and Mangelsdorf et al. The Retinoids: Biology, Chemistry and Medicine, pp 319-349, Raven Press Ltd., New York, are expressly incorporated herein by reference. The results of ligand binding assay are expressed in KD50 numbers.” left out

Row | EC50 (RARβ) [µM] | Transactivation Assay Afficacy (% of RA activity) RARβ (RARβ) | EC50 (RXRα [1]) [µM] | Transactivation Assay Afficacy (% of RA activity) RXRα (RXRα [1]) | Emax (RXRβ) [%] | EC50 (RXRΓ) [µM] | Transactivation Assay Afficacy (% of RA activity) RXRΓ (RXRΓ) | EC50 (RARΓ) [µM] | Transactivation Assay Afficacy (% of RA activity) RARΓ (RARΓ) | EC50 (RARα) [µM] | Transactivation Assay Afficacy (% of RA activity) RARα (RARα) | Kd (RXRα [2]) [µM] | SMILES
1 | > 1 | 3.0 % of RA activity | 0.13 | 55.0 % of RA activity | 72 | 0.071 | 40.0 % of RA activity | > 1 | 8.0 % of RA activity | > 1 | 0.0 % of RA activity | 0.071 | CC(C=CC1CC1(C)c1cc2c(cc1C)C(C)(C)CCC2(C)C)=CC(=O)O (stereo not drawn) [Compound 13, 3,7-Dimethyl,6(RS),7(SR) methano-7-(3,5,5,8,8-pentamethyl-5,6,7,8-tetrahydronaphth-2-yl),2(E),4(E)-heptadienoic Acid]
2 | 0.048 | 29 % of RA activity | 0.03 | 111 % of RA activity | 118 | 0.013 | 73 % of RA activity | 0.27 | 41 % of RA activity | 1.2 | 30 % of RA activity | 0.003 | CC(C=CC1CC1(C)c1ccc2c(c1)C(C)(C)CCS2)=CC(=O)O (stereo not drawn) [Compound 17, 3,7-Dimethyl,6(RS),7(SR) methano-7-(4,4-dimethylthiochroman-6-yl) 2(E),4(E)-heptadienoic Acid]
3 | 1.8 | 26.0 % of RA activity | 0.027 | 83.0 % of RA activity | 93 | 0.029 | 85.0 % of RA activity | > 1 | 14.0 % of RA activity | > 1 | 4.0 % of RA activity | 0.005 | CC(C=CC1CC1(C)c1ccc2c(c1)C(C)(C)CCO2)=CC(=O)O (stereo not drawn) [Compound 21, 3,7-Dimethyl,6(RS),7(SR) methano-7-(4,4-dimethyl-chroman-6-yl),2(E),4(E)-heptadienoic Acid]

Row | SMILES | EC50 (RARβ) [µM] | Transactivation Assay Afficacy (% of RA activity) RARβ (RARβ) | EC50 (RXRα [1]) [µM] | Transactivation Assay Afficacy (% of RA activity) RXRα (RXRα [1]) | Emax (RXRβ) [%] | EC50 (RXRΓ) [µM] | Transactivation Assay Afficacy (% of RA activity) RXRΓ (RXRΓ) | EC50 (RARΓ) [µM] | Transactivation Assay Afficacy (% of RA activity) RARΓ (RARΓ) | EC50 (RARα) [µM] | Transactivation Assay Afficacy (% of RA activity) RARα (RARα) | Kd (RXRα [2]) [µM]
4 | CC(/C=C/c1ccccc1-c1ccc2c(c1)C(C)(C)CCC2(C)C)=C\C(=O)O [Compound 9, 3-Methyl-5-[2-(5,5,8,8,-tetramethyl-5,6,7,8-tetrahydronaphth-2-yl)phenyl]pent-2(E),4(E)-dienoic Acid] | > 1 | 8.0 % of RA activity | 0.29 | 59.0 % of RA activity | 94 | 0.24 | 50.0 % of RA activity | > 1 | 8.0 % of RA activity | > 1 | 2.0 % of RA activity | –
